Reference: patent US20140162285A1, “Methods of Modulating Vesicular Trafficking” (The General Hospital Corporation, priority 2009, published 2014)
Peptide text beside a SMILES is read from it. * marks the point of attachment. Biotin = O=C1N[C@H]2[C@H](CS[C@H]2CCCCC(=O)*)N1

T1: ARNO Sec7-domain (Homo sapiens, UniProt Q99418)
T1 construct: iii) 61-252aa, Sec7 domain; made in house; host or cells: E. coli BL21(DE3)
T1 sequence (Q99418 61-252): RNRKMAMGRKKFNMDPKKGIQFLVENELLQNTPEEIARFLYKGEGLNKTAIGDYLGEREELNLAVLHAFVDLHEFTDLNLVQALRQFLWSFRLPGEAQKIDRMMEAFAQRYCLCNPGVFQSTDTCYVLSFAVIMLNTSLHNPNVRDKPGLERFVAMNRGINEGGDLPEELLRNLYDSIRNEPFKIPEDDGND

B1: a2N: recombinant N-terminal cytosolic tail, amino acid residues 1-402 of mouse V-ATPase a2-subunit (protein)
chain: MGSLFRSESMCLAQLFLQSGTAYECLSALGEKGLVQFRDLNQNVSSFQRKFVGEVKRCEELERILVYLVQEITRADIPLPEGEASPPAPPLKHVLEMQEQLQKLEVELREVTKNKEKLRKNLLELVEYTHMLRVTKTFLKRNVEFEPTYEEFPALENDSLLDYSCMQRLGAKLGFVSGLIQQGRVEAFERMLWRACKGYTIVTYAELDECLEDPETGEVIKWYVFLISFWGEQIGHKVKKICDCYHCHIYPYPNTAEERREIQEGLNTRIQDLYTVLHKTEDYLRQVLCKAAESVCSRVVQVRKMKAIYHMLNMCSFDVTNKCLIAEVWCPEVDLPGLRRALEEGSRESGATIPSFMNTIPTKETPPTLIRTNKFTEGFQNIVDAYGVGSYREVNPALFTII
modifications: left off: small tags and cut ends
notes: recombinant N-terminal cytosolic tail, amino acid residues 1-402 of mouse V-ATPase a2-subunit

How the values were obtained:
[1] = biological target: T2, PB-domain of ARNO (Homo sapiens, UniProt Q99418); test: a2N-derived peptide pull-down with GST-PB domain; assay type: binding
T2 construct: v) 379-400aa, polybasic (PB) domain; made in house; host or cells: E. coli BL21(DE3)
T2 sequence (Q99418 379-400 limits assumed): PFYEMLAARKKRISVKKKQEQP
Experimental: FIGS. 5A-C are a set of three images of Western blots showing the identification of interaction motif of a2N that is involved in specific binding with the Sec7 domain of ARNO. 5A, The catalytic Sec7 domain of ARNO interacts with two a2N-derived peptides, a2N-01 and a2N-03, in pull-down experiments. The peptide pull-down assay was performed with six a2N-derived interaction peptides immobilized on streptavidin-beads and incubated with purified recombinant GST-only or GST-Sec7 domain. Interacting complexes were eluted and analyzed by Western blotting using monoclonal anti-GST antibodies as described below. The loading controls for GST-only (lane 1) or GST-Sec7 (lane 2) are shown. […] The peptide pull-down assay was performed with peptides a2N-01 and a2N-03 immobilized on streptavidin-beads and incubated with purified recombinant GST-PH domain (5B) or GST-PB domain (5C). Interacting complexes were eluted and analyzed by Western blotting using monoclonal anti-GST antibodies. […]
These a2N-derived peptides were immobilized by an N-terminal biotin-tag, which ensured the same efficiency and equivalent binding to streptavidin-agarose beads. […] After washing beads four times in ice-cold binding buffer, the interacting complexes were eluted by boiling in SDS-PAGE sample buffer for 10 min at 95° C., resolved by SDS-PAGE and analyzed by Western blotting using monoclonal anti-GST antibody. […]

[2] = biological target: T1, ARNO Sec7-domain; test: GST pull-down of in vitro translated a2N with ARNO Sec7-domain; assay type: binding; settings: Western blot anti-a2N
Experimental: The purified recombinant GST-ARNO(wt) and GST-tagged ARNO domain constructs ([…]) were incubated with 10 μl of in vitro translated 6His-a2N recombinant protein at 4° C. for 2 hours in 500 μl of binding buffer (10 mM HEPES, 1 mM EDTA, 1 mM DTT, 100 mM NaCl, 10% glycerol, 0.1% NP-40) with gentle rotation. Then the interacting recombinant proteins were immobilized on glutathione beads by incubation with 50 μl of 50% glutathione Sepharose 4B slurry for 2 hours at 4° C. The beads were collected by centrifugation and washed 5 times with 500 μl ice-cold binding buffer. Interacting proteins were eluted by boiling in SDS-PAGE sample buffer for 10 min at 95° C., resolved by SDS-PAGE and analyzed by Western blotting using polyclonal anti-a2N antibodies. […]
To examine the ability of these well-defined and functionally distinct domains of ARNO to interact with a2N1-402, full-length ARNO(wt) and its four domains were cloned separately for bacterial expression of recombinant proteins (FIG. 3). […] Interacting proteins were detected by western blot analysis with a2-specific antibodies as described above.

Molecule | interaction with PB-domain of ARNO [1] | interaction of a2N with ARNO Sec7-domain [2]
CSCC[C@H](NC(=O)CCCC[C@@H]1SC[C@@H]2NC(=O)N[C@@H]21)C(=O)NCC(=O)N[C@@H](CO)C(=O)N[C@@H](CC(C)C)C(=O)N[C@@H](Cc1ccccc1)C(=O)N[C@@H](CCCNC(=N)N)C(=O)N[C@@H](CO)C(=O)N[C@@H](CCC(=O)O)C(=O)N[C@@H](CO)C(=O)N[C@@H](CCSC)C(=O)N[C@@H](CS)C(=O)N[C@@H](CC(C)C)C(=O)N[C@@H](C)C(=O)N[C@@H](CCC(N)=O)C(=O)N[C@@H](CC(C)C)C(=O)N[C@@H](Cc1ccccc1)C(=O)N[C@@H](CC(C)C)C(=O)N[C@@H](CS)C(=O)O [a2N-01, Bio-MGSLFRSE SMCLAQLFL-Cys] (Biotin-MGSLFRSESMCLAQLFLC-OH; N-terminus and C-terminus assumed) | does not interact | 
B1 |  | interacts strongly
